From paper PMC10164568 (2023)

Columns and labels:
[1] = system: 3H3Md-TET (DNA, aptamer) CGGTGGTGCGGTGGTGAAACACCAAAACACCAAAA; assay: ThT displacement fluorescence; conditions: 10 mM Tris-HCl pH 7.4; 12.5 μM compound; ThT displaced
[2] = system: 6H3M0 (DNA, hairpin) TTTTTTTTTTTTTTTTTTTTTTTTTAAAAAAAAAAAAAAAAAAAAAAAAAAAAAAA; assay: ThT fluorescence enhancement; conditions: 10 mM Tris-HCl pH 7.4, room temperature; 1 μM DNA, 1 μM ThT
[3] = system: H-BB (DNA, hairpin) ACATAATTTAATATTTATGTTAACATAAATATTAAATTATGT; assay: UV-vis absorption shift; conditions: 10 mM Tris-HCl pH 7.4; 2.5 μM ThT in UV-vis

Row | Structure (SMILES) | binding [1] | binding [2] | binding [3]
1 | C[C@H]1c2cccc(O)c2C(=O)C2=C(O)[C@]3(O)C(=O)C(C(N)=O)=C(O)[C@@H](N(C)C)[C@@H]3[C@@H](O)[C@@H]21 | weak | – | –
2 | CN(C)[C@@H]1C(=O)C(C(N)=O)=C(O)[C@@]2(O)C(=O)C3=C(O)c4c(O)cccc4[C@@](C)(O)[C@H]3[C@H](O)[C@@H]12 | weak | – | –
3 | Cc1ccc2c(c1)sc(-c1ccc(N(C)C)cc1)[n+]2C | – | weak | weak
